{"source": "paper PMC5215309", "about": "(European Journal of Nuclear Medicine and Molecular Imaging, 2016)", "target": "T1, PDE10A (Macaca fascicularis, UniProt A0A2K5WSP5)", "T1 construct": "native enzyme in living brain (in vivo PET; striatum, globus pallidus, substantia nigra)", "T1 sequence (A0A2K5WSP5 1-791)": "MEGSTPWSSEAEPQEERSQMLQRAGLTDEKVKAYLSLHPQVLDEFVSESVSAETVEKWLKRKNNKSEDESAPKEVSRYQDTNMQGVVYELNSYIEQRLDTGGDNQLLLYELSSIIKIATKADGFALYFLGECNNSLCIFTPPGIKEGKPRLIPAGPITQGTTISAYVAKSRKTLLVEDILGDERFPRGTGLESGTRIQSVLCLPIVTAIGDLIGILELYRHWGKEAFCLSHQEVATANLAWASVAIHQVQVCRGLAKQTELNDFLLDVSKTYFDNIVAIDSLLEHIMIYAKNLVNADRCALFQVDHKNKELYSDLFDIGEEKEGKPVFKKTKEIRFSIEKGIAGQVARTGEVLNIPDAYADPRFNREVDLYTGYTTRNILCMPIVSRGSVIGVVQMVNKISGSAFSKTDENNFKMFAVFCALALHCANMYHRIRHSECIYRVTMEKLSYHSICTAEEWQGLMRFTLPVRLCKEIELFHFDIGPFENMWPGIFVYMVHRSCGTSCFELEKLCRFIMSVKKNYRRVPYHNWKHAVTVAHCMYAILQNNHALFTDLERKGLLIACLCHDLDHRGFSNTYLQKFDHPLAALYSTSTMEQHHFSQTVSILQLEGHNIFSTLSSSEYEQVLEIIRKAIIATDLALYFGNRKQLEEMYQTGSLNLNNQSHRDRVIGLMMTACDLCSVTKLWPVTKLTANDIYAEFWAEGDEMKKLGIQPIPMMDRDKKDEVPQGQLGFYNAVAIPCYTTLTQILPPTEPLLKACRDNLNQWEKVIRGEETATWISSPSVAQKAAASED", "assay": "in vivo PET competition with […]Lu AE92686, Lassen plot", "details": "two monkeys; i.v. pretreatment, mean plasma concentrations 685 and 749 ng/mL", "data": [{"smiles": "Cn1cc(-c2ccncc2)c(-c2ccc(OCc3ccc4ccccc4n3)cc2)n1", "note": "[MP-10]", "values": [{"measurement": "% PDE10A occupancy at […]", "result": "93 and 95"}]}]}
